For 1 molecule, Activity results are on record in ChEMBL document CHEMBL1255310, “Simvastatin treatment shows no effect on the incidence of cerebral malaria or parasitemia during experimental malaria” (2008).

Assay type in all cases: functional
In test [1] the test system is Plasmodium berghei. Put plainly: Antiplasmodial activity against Plasmodium berghei ANKA infected in C57BL/6 mice (Mus musculus) assessed as parasitemia at 2 ug/g, intraperitoneally on days 2,4 and 6.
The subject of test [2] is Plasmodium berghei. Description: Antiplasmodial activity against Plasmodium berghei ANKA infected in C57BL/6 mice (Mus musculus) assessed as parasitemia at 0.5 ug/g, intraperitoneal on day 2, 1 ug/g, intraperitoneal on day 4 followed by 2 ug/g on day 6.
Test [3] relates to Plasmodium berghei. Description: Antiplasmodial activity against Plasmodium berghei ANKA infected in C57BL/6 mice (Mus musculus) assessed as parasitemia at 40 ug/g, intraperitoneally on days 2,4 and 6.
Test [4] deals with Plasmodium berghei. Put plainly: Antiplasmodial activity against Plasmodium berghei ANKA infected in C57BL/6 mice (Mus musculus) assessed as parasitemia at 100 ug/g, perorally on days 1,3 and 5.

In the case of `CCC(C)(C)C(=O)O[C@H]1C[C@@H](C)C=C2C=C[C@H](C)[C@H](CC[C@@H]3C[C@@H](O)CC(=O)O3)[C@H]21` [SIMVASTATIN], the Activity in the test with Plasmodium berghei [1] was determined as 2.38%; in the test with Plasmodium berghei [2] it was 3.04%; in the test on Plasmodium berghei [3], 2.04%; with Plasmodium berghei [4], 2.98%.
